Source: ChEMBL document CHEMBL4814006, “Novel amino substituted tetracyclic imidazo[4,5-b]pyridine derivatives: Design, synthesis, antiproliferative activity and DNA/RNA binding study” (Eur J Med Chem, 2021)
Each block holds one molecule with its values, some of them ahead of it. Calls of active or inactive are those of the source. The calls are words filed in the database; no cut-off is given here.

Assays:
HCT-116 = experiment: Antiproliferative activity against human HCT-116 cells assessed as inhibition of cell growth incubated for 72 hrs by MTT assay; format: functional, cell-based; conditions: HCT-116, 72 h
NCI-H460 = experiment: Antiproliferative activity against human NCI-H460 cells assessed as inhibition of cell growth incubated for 72 hrs by MTT assay; format: functional, cell-based; conditions: NCI-H460, 72 h
MCF7 = experiment: Antiproliferative activity against human MCF7 cells assessed as inhibition of cell growth incubated for 72 hrs by MTT assay; format: functional, cell-based; conditions: MCF7, 72 h
HEK293 = experiment: Cytotoxicity against human HEK293 cells assessed as inhibition of cell growth incubated for 72 hrs by MTT assay; format: cell-based; conditions: HEK293, 72 h
Calf thymus DNA [1] = experiment: Binding affinity to calf thymus DNA assessed as binding constant in sodium cacodylate buffer at pH 7 by fluorescence spectroscopy; conditions: Bos taurus
Calf thymus DNA [2] = experiment: Binding affinity to calf thymus DNA assessed as ratio of bound compound to polynucleotide phosphate in sodium cacodylate buffer at pH 7 by fluorescence spectroscopy based Scatchard analysis; conditions: Bos taurus
Calf thymus DNA [3] = experiment: Binding affinity to calf thymus DNA assessed as ratio of fluorescence intensity of compound-polynucleotide complex to fluorescence intensity of compound in sodium cacodylate buffer at pH 7 by fluorescence spectroscopy based Scatchard method; conditions: Bos taurus
[4] = tested on: Poly(dA-dU)oligonucleotide; experiment: Binding affinity to polyA-polyU RNA (unknown origin) assessed as binding constant in sodium cacodylate buffer at pH 7 by fluorescence spectroscopy; format: nucleic-acid assay
[5] = tested on: Poly(dA-dU)oligonucleotide; experiment: Binding affinity to polyA-polyU RNA (unknown origin) assessed as ratio of bound compound to polynucleotide phosphate in sodium cacodylate buffer at pH 7 by fluorescence spectroscopy based Scatchard method; format: nucleic-acid assay
[6] = tested on: Poly(dA-dU)oligonucleotide; experiment: Binding affinity to polyA-polyU RNA (unknown origin) assessed as ratio of fluorescence intensity of compound-polynucleotide complex to fluorescence intensity of compound in sodium cacodylate buffer at pH 7 by fluorescence spectroscopy based Scatchard method; format: nucleic-acid assay
[7] = tested on: Poly(dA-dT)oligonucleotide; experiment: Binding affinity to poly(dAdT)2 DNA (unknown origin) assessed as binding constant in sodium cacodylate buffer at pH 7 by fluorescence spectroscopy; format: nucleic-acid assay
[8] = tested on: Poly(dA-dT)oligonucleotide; experiment: Binding affinity to poly(dAdT)2 DNA (unknown origin) assessed as ratio of bound compound to polynucleotide phosphate in sodium cacodylate buffer at pH 7 by fluorescence spectroscopy based Scatchard method; format: nucleic-acid assay
[9] = tested on: Poly(dA-dT)oligonucleotide; experiment: Binding affinity to poly(dAdT)2 DNA (unknown origin) assessed as ratio of fluorescence intensity of compound-polynucleotide complex to fluorescence intensity of compound in sodium cacodylate buffer at pH 7 by fluorescence spectroscopy based Scatchard method; format: nucleic-acid assay
[10] = tested on: Poly(dG-dC)oligonucleotide; experiment: Binding affinity to poly(dGdC)2 DNA (unknown origin) assessed as binding constant in sodium cacodylate buffer at pH 7 by fluorescence spectroscopy; format: nucleic-acid assay
[11] = tested on: Poly(dG-dC)oligonucleotide; experiment: Binding affinity to poly(dGdC)2 DNA (unknown origin) assessed as ratio of bound compound to polynucleotide phosphate in sodium cacodylate buffer at pH 7 by fluorescence spectroscopy based Scatchard method; format: nucleic-acid assay
[12] = tested on: Poly(dG-dC)oligonucleotide; experiment: Binding affinity to poly(dGdC)2 DNA (unknown origin) assessed as ratio of fluorescence intensity of compound-polynucleotide complex to fluorescence intensity of compound in sodium cacodylate buffer at pH 7 by fluorescence spectroscopy based Scatchard method; format: nucleic-acid assay
Calf thymus DNA [13] = experiment: Binding affinity to calf thymus DNA assessed as change in melting temperature in sodium cacodylate buffer at pH 7 at compound:polynucleotide concentration ratio of 0.3 by UV/Vis spectrophotometric analysis; format: nucleic-acid assay; conditions: Bos taurus
[14] = tested on: Poly(dA-dU)oligonucleotide; experiment: Binding affinity to polyA-polyU RNA (unknown origin) assessed as change in melting temperature in sodium cacodylate buffer at pH 7 at compound:polynucleotide concentration ratio of 0.3 by UV/vis spectrophotometric analysis; format: nucleic-acid assay
[15] = tested on: Poly(dA-dT)oligonucleotide; experiment: Binding affinity to poly(dAdT)2 DNA (unknown origin) assessed as change in melting temperature in sodium cacodylate buffer at pH 7 at compound:polynucleotide concentration ratio of 0.3 by UV/Vis spectrophotometric analysis; format: nucleic-acid assay
Quadruplex DNA [16] = experiment: Binding affinity to human Tel22 G quadruplex DNA assessed as binding constant in sodium cacodylate buffer at pH 7 at binding stoichiometry ratio of 1:1 by fluorescence spectroscopy; format: nucleic-acid assay
Quadruplex DNA [17] = experiment: Binding affinity to human Tel22 G quadruplex DNA assessed as ratio of fluorescence intensity of compound-polynucleotide complex to fluorescence intensity of compound in sodium cacodylate buffer at pH 7 at binding stoichiometry ratio of 1:1 by fluorescence spectroscopy; format: nucleic-acid assay
Quadruplex DNA [18] = experiment: Binding affinity to human Tel22 G quadruplex DNA assessed as change in melting temperature in sodium cacodylate buffer at pH 7 by UV/Vis spectrophotometric analysis; format: nucleic-acid assay
[19] = tested on: Poly(dA-dT)oligonucleotide; experiment: Binding affinity to poly(dAdT)2 DNA (unknown origin) in sodium cacodylate buffer at pH 7 by CD spectroscopy; format: nucleic-acid assay
[20] = tested on: Poly(dG-dC)oligonucleotide; experiment: Binding affinity to poly(dGdC)2 DNA (unknown origin) in sodium cacodylate buffer at pH 7 by CD spectroscopy; format: nucleic-acid assay
[21] = tested on: Poly(dA-dU)oligonucleotide; experiment: Binding affinity to polyA-polyU RNA (unknown origin) in sodium cacodylate buffer at pH 7 by CD spectroscopy; format: nucleic-acid assay
Quadruplex DNA [22] = experiment: Binding affinity to human Tel22 G quadruplex DNA in sodium cacodylate buffer at pH 7 by CD spectroscopy; format: nucleic-acid assay

IC50 (HCT-116): 3600 nM
IC50 (NCI-H460): 1800 nM
IC50 (MCF7): 4700 nM
SMILES: N#Cc1c(N2CCNCC2)c2ccccc2n2c1nc1cccnc12

IC50 (HCT-116): 400 nM
IC50 (NCI-H460): 400 nM
IC50 (MCF7): 700 nM
log Ks [4]: 6.3
Ratio [5]: 0.1
Ratio [6]: 0.8
log Ks [7]: 6.9
Ratio [8]: 0.2
Ratio [9]: 0.7
log Ks [10]: 5.8
Ratio [11]: 0.2
Ratio [12]: 0.4
ΔTm (Calf thymus DNA [13]): 6.6 °C
ΔTm [14]: 9.5 °C
ΔTm [15]: 18.2 °C
log Ks (Quadruplex DNA [16]): 5.48
Ratio (Quadruplex DNA [17]): 0.7
ΔTm (Quadruplex DNA [18]): 1.9 °C
Activity [19]: Active
Activity [20]: Active
Activity [21]: Active
Activity (Quadruplex DNA [22]): Active
SMILES: CN(C)CCCNc1ccc2cc(C#N)c3nc4cccnc4n3c2c1
IC50 (HEK293): 300 nM
log Ks (Calf thymus DNA [1]): 5.5
Ratio (Calf thymus DNA [2]): 0.6
Ratio (Calf thymus DNA [3]): 0.5

IC50 (HCT-116): 1800 nM
IC50 (NCI-H460): 7000 nM
IC50 (MCF7): 3600 nM
SMILES: N#Cc1c(N2CCCCC2)c2ccc(N3CCCCC3)cc2n2c1nc1ncccc12

IC50 (NCI-H460): 100 nM
IC50 (MCF7): 1000 nM
SMILES: COc1cc([C@@H]2c3cc4c(cc3[C@@H](O[C@@H]3O[C@@H]5CO[C@@H](C)O[C@H]5[C@H](O)[C@H]3O)[C@H]3COC(=O)[C@H]23)OCO4)cc(OC)c1O [ETOPOSIDE]

IC50 (HCT-116): 900 nM
IC50 (NCI-H460): 1400 nM
IC50 (MCF7): 2900 nM
SMILES: CN(C)CCCNc1c(C#N)c2nc3cccnc3n2c2ccccc12
IC50 (HEK293): 1800 nM

IC50 (HCT-116): 3700 nM
IC50 (NCI-H460): 7600 nM
IC50 (MCF7): 2000 nM
Activity (Quadruplex DNA [22]): Active
SMILES: CC(C)CNc1ccc2c(NCC(C)C)c(C#N)c3nc4ncccc4n3c2c1

IC50 (HCT-116): 3000 nM
IC50 (NCI-H460): ≥ 100000 nM
IC50 (MCF7): 2000 nM
SMILES: N#Cc1c(Cl)c2ccc(F)cc2n2c1nc1cccnc12

IC50 (HCT-116): 3000 nM
IC50 (NCI-H460): 12000 nM
IC50 (MCF7): 3000 nM
SMILES: CC(C)CNc1ccc2cc(C#N)c3nc4ncccc4n3c2c1

IC50 (HCT-116): 3500 nM
IC50 (NCI-H460): ≥ 100000 nM
IC50 (MCF7): 2000 nM
SMILES: N#Cc1c(Cl)c2ccc(F)cc2n2c1nc1ncccc12

IC50 (HCT-116): 400 nM
IC50 (NCI-H460): 400 nM
IC50 (MCF7): 400 nM
SMILES: N#Cc1cc2ccc(N3CCNCC3)cc2n2c1nc1cccnc12
IC50 (HEK293): 700 nM

IC50 (HCT-116): 900 nM
IC50 (NCI-H460): 7000 nM
IC50 (MCF7): 3100 nM
SMILES: N#Cc1cc2ccc(N3CCNCC3)cc2n2c1nc1ncccc12

IC50 (HCT-116): 3000 nM
IC50 (NCI-H460): 5400 nM
IC50 (MCF7): 1800 nM
SMILES: CC(C)CNc1ccc2c(NCC(C)C)c(C#N)c3nc4cccnc4n3c2c1

IC50 (HCT-116): 5000 nM
IC50 (NCI-H460): ≥ 100000 nM
IC50 (MCF7): ≥ 100000 nM
SMILES: N#Cc1cc2ccc(F)cc2n2c1nc1cccnc12

IC50 (HCT-116): 3000 nM
IC50 (NCI-H460): ≥ 100000 nM
IC50 (MCF7): 6000 nM
SMILES: N#Cc1c(Cl)c2ccccc2n2c1nc1cccnc12
